In US11439641B2, “Pyrimidine JAK inhibitors for the treatment of skin diseases” (THERAVANCE BIOPHARMA R&D IP, LLC, priority 2019, dated 2022):
In brackets after ≈: the same amount, converted by molar mass.

Columns and labels:
JAK3 = JAK3 (Homo sapiens (Human), UniProt P52333); assay: Biochemical JAK and Tyk2 Kinase Assays (LanthaScreen), JAK3; settings: 1.6 μM ATP (Km); pIC50 converted to pKi by Cheng-Prusoff; read-out: JAK 3 (pKi) (converted)
Protocol: (§1) Assay 1: Biochemical JAK and Tyk2 Kinase Assays
(§2) A panel of four LanthaScreen JAK biochemical assays (JAK1, 2, 3 and Tyk2) were carried in a common kinase reaction buffer (50 mM HEPES, pH 7.5, 0.01% Brij-35, 10 mM MgCl2, and 1 mM EGTA). Recombinant GST-tagged JAK enzymes and a GFP-tagged STAT1 peptide substrate were obtained from Life Technologies.
(§3) Serially or discretely diluted compounds were pre-incubated with each of the four JAK enzymes and the substrate in white 384-well microplates (Corning) at ambient temperature for 1 h. ATP was subsequently added to initiate the kinase reactions in 10 μL total volume, with 1% DMSO. The final enzyme concentrations for JAK1, 2, 3 and Tyk2 are 4.2 nM, 0.1 nM, 1 nM, and 0.25 nM respectively; the corresponding Km ATP concentrations used are 25 μM, 3 μM, 1.6 μM, and 10 μM; while the substrate concentration is 200 nM for all four assays. Kinase reactions were allowed to proceed for 1 hour at ambient temperature before a 10 μL preparation of EDTA (10 mM final concentration) and Tb-anti-pSTAT1 (pTyr701) antibody (Life Technologies, 2 nM final concentration) in TR-FRET dilution buffer (Life Technologies) was added. The plates were allowed to incubate at ambient temperature for 1 h before being read on the EnVision reader (Perkin Elmer). Emission ratio signals (520 nm/495 nm) were recorded and utilized to calculate the percent inhibition values based on DMSO and background controls.
(§4) For dose-response analysis, percent inhibition data were plotted vs. compound concentrations, and IC50 values were determined from a 4-parameter robust fit model with the Prism software (GraphPad Software). Results were expressed as pIC50 (negative logarithm of IC50) and subsequently converted to pKi (negative logarithm of dissociation constant, Ki) using the Cheng-Prusoff equation.

physchem = settings: thermodynamic from solid
Protocol: Assay 6: Solubility Assay in Organic Excipients
The purpose of this assay was to quantify the solubility of test compounds in different organic excipients such as diisopropyl adipate, medium chain triglycerides (MCT), propylene glycol, and polyethylene glycol. The assay required 80 μL of 100 mM DMSO test compound solution per desired excipient in addition to 40 μL required to make a test standard.
The standard was created by diluting 40 μL of 100 mM DMSO compound stock solution into 160 μL of methanol and was shaken for five minutes to ensure solution uniformity. […] This 20,000 μM solution was run on an Agilent 1260 LC-MS system by injecting 0.2 μL in order to obtain the peak area. For the test solutions, 80 μL of 100 mM DMSO compound stock solution, per excipient, were dried down into a powder overnight. Once in powder form, 400 μL of the desired excipient was added to the powder and allowed to shake vigorously for four hours. The maximum theoretical concentration for this sample solution was 20,000 μM. After four hours of shaking, the samples were centrifuged for 10 minutes at 3,000 RPM before injecting 0.2 μL on the same Agilent 1260 LC-MS system to obtain the peak area.

Caco-2 cell monolayer = assay: Caco-2 Permeation Assay; format: in vitro ADME; settings: Papp, 5 μM compound; for Cacoverap Kp 10^−6 cm/sec: A→B in the presence of 25 μM verapamil (P-gp inhibitor); for Caco Kp 10^−6 cm/sec: apical to basal (A→B)
Protocol: Assay 3: Caco-2 Permeation Assay
The Caco 2 permeability assay was used as a surrogate for assessment of skin permeability. This assay measures the in vitro permeability across a monolayer of Caco-2 cells, which morphologically and functionally resemble the enterocytes of the small intestine.
CacoReady 24-well transwell plates were obtained from ADMEcell (Alameda, Calif.). The compounds were evaluated at a concentration of 5 μM from 10 mM DMSO stock solutions in duplicate (n=2). Transport in the apical to basal (A→B) direction was determined in Caco 2 cell monolayers. From these values the apparent permeability (Papp) was calculated. To inform on the potential of the compound to be a P-gp substrate, the transport of the compound across the Caco-2 cell monolayer was also determined in the presence of 25 μM of the known P-gp inhibitor verapamil (Yusa and Tsuruo et al., Cancer Research, vol. 49, no. 18, 1989, pp. 5002-06).
Caco-2 culture media consisted of standard filtered DMEM, FCS 10%, L-Glutamine 1%, and PenStrep 1%. The experiment was conducted at 37° C. and in a CO2 (5%) incubator. The basal assay plate was prepared by adding 750 pt of transport buffer to A→B wells. A CacoReady™ plate was prepared by removing the Caco-2 media from the apical wells and replacing with fresh transport media (200 pt repeated for a total of 3 washes). Blank media (200 μL) was then replaced with diluted compound. To begin the incubation, the basal plate was removed from the incubator and the apical section was added on top of it. Samples were collected from the apical and basal compartments for time zero (t0). Samples were collected again after 120 minutes (t120) from the apical and basal compartments. All samples were diluted and prepared for bioanalysis by LC-MS/MS. The permeability coefficients (Papp, mean A to B) and (Papp, mean A to B+Verapamil) in cm/sec were calculated as dQ (flux)/(dt×Area×concentration).
In this assay, a compound with a Papp value of more than about 12×10−6 cm/sec is considered to have high permeability.

JAK1 = JAK1 (Homo sapiens (Human), UniProt P23458); assay: Biochemical JAK and Tyk2 Kinase Assays (LanthaScreen), JAK1; settings: 25 μM ATP (Km), pIC50 converted to pKi by Cheng-Prusoff
Protocol: as §1, §2, §3, §4

[1] = tested on: IL-2 stimulated pSTAT5 in Tall-1 T cells; assay: Inhibition of IL-2 Stimulated pSTAT5 in Tall-1 T Cells; format: cell-based; settings: Tall-1 human T cell line, IL-2 300 ng/mL, AlphaLisa; read-out: Tall-1 IL2 pSTAT5 (pIC50) (converted)
Protocol: Assay 2: Inhibition of IL-2 Stimulated pSTAT5 in Tall-1 T Cells
The potency of test compounds for inhibition of interleukin-2 (IL-2) stimulated STATS phosphorylation was measured in the Tall-1 human T cell line (DSMZ) using AlphaLisa. Because IL-2 signals through JAK1/3, this assay provides a measure of JAK1/3 cellular potency.
Phosphorylated STATS was measured via the AlphaLISA SureFire Ultra pSTAT5 (Tyr694/699) kit (PerkinElmer). Human T cells from the Tall-1 cell line were cultured in a 37° C., 5% CO2 humidified incubator in RPMI (Life Technologies) supplemented with 15% Heat Inactivated Fetal Bovine Serum (FBS, Life Technologies), 2 mM Glutamax (Life Technologies), 25 mM HEPES (Life Technologies) and 1× Pen/Strep (Life Technologies). Compounds were serially diluted in DMSO and dispensed acoustically to empty wells. Assay media (phenol red-free DMEM (Life Technologies) supplemented with 10% FBS (ATCC)) was dispensed (4 μL/well) and plates shaken at 900 rpm for 10 mins. Cells were seeded at 45,000 cells/well in assay media (4 μL/well), and incubated at 37° C., 5% CO2 for 1 hour, followed by the addition of IL-2 (R&D Systems; final concentration 300 ng/mL) in pre-warmed assay media (4 μL) for 30 minutes. After cytokine stimulation, cells were lysed with 6 ul of 3× AlphaLisa Lysis Buffer (PerkinElmer) containing 1× PhosStop and Complete tablets (Roche). The lysate was shaken at 900 rpm for 10 minutes at room temperature (RT). Phosphorylated STATS was measured via the pSTAT5 AlphaLisa kit (PerkinElmer). Freshly prepared acceptor bead mixture was dispensed onto lysate (51) under green filtered <100 lux light. Plates were shaken at 900 rpm for 2 mins, briefly spun down, and incubated for 2 hrs at RT in the dark. Donor beads were dispensed (5 μL) under green filtered <100 lux light. Plates were shaken at 900 rpm for 2 minutes, briefly spun down, and incubated overnight at RT in the dark. Luminescence was measured with excitation at 689 nm and emission at 570 nm using an EnVision plate r reader (PerkinElmer) under green filtered <100 lux light.
To determine the inhibitory potency of test compounds in response to IL-2, the average emission intensity of beads bound to pSTAT5 was measured in a human T cell line. IC50 values were determined from analysis of the inhibition curves of signal intensity versus compound concentration. Data are expressed as pIC50 (negative decadic logarithm IC50) values (mean±standard deviation).

[2] = oil or lipid, Solubility in MCT (mg/mL)
[3] = organic solvent or mixture, Solubility in Diisopropyl adipate (mg/mL)
[4] = organic solvent or mixture, Solubility in PEG400 (mg/mL)
[5] = organic solvent or mixture, Solubility in Propylene glycol (mg/mL)

Chain of JAK3 (P52333 whole entry): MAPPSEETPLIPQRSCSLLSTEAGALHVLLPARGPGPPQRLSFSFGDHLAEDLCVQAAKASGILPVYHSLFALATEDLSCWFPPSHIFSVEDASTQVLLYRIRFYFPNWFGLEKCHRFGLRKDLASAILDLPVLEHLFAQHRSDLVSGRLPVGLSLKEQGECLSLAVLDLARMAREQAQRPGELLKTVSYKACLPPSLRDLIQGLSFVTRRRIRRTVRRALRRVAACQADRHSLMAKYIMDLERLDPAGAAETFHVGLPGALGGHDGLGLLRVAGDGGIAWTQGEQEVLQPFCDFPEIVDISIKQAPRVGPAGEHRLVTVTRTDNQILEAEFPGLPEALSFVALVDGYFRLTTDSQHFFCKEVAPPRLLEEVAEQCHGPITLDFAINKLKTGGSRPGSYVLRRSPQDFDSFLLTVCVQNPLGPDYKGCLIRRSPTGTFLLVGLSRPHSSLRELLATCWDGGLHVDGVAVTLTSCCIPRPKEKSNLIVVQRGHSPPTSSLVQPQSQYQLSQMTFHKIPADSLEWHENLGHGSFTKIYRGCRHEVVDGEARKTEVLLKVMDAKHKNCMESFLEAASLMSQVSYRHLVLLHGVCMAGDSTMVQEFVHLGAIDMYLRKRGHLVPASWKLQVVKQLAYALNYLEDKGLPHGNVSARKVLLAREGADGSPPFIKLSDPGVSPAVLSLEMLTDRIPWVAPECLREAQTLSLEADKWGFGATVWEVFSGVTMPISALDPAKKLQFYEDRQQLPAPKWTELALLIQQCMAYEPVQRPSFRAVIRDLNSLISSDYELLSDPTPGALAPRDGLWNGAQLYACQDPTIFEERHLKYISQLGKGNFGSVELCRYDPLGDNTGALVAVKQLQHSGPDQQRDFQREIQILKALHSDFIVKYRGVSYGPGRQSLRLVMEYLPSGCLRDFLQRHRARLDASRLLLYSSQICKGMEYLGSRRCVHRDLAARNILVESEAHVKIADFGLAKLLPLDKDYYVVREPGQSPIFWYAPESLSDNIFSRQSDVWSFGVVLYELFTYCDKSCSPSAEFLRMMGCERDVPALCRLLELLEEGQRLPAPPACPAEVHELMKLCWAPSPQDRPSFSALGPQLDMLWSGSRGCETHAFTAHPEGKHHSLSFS
Chain of JAK1 (P23458 whole entry): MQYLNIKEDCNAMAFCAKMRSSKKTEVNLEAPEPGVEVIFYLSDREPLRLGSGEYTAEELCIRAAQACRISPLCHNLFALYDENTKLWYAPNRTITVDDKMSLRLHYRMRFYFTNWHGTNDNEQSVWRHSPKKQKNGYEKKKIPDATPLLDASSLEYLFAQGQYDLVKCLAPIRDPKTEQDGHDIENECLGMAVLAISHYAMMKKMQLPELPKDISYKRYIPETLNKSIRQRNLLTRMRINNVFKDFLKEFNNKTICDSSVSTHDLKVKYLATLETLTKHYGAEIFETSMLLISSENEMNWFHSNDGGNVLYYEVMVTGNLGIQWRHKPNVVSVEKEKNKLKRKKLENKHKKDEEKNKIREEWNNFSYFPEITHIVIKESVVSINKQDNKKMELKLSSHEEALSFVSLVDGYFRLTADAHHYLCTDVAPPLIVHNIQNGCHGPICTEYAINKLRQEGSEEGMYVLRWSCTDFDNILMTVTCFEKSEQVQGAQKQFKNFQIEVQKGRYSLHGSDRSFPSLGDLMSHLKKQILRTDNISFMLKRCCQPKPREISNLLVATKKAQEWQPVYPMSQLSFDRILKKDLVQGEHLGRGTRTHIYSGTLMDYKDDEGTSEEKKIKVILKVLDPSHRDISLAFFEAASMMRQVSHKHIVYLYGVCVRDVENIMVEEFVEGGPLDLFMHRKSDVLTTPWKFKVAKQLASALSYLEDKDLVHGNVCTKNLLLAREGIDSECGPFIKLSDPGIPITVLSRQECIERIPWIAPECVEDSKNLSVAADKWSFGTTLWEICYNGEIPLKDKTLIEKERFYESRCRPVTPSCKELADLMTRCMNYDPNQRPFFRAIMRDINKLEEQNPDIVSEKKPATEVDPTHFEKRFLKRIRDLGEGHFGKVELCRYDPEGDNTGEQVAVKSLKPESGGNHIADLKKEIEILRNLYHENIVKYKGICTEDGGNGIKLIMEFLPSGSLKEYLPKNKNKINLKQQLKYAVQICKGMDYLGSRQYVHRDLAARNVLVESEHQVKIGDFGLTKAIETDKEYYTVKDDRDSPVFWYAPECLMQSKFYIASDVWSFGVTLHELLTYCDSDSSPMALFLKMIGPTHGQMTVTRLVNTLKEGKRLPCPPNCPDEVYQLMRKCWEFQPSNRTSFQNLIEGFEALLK

Row | Structure (SMILES) | Ki (JAK3) [nM] | solubility at 4 h (physchem; [2]) [µg/mL] | solubility at 4 h (physchem; [3]) [µg/mL] | solubility at 4 h (physchem; [4]) [µg/mL] | solubility at 4 h (physchem; [5]) [µg/mL] | Cacoverap Kp 10^−6 cm/sec (Caco-2 cell monolayer) | Caco Kp 10^−6 cm/sec (Caco-2 cell monolayer) | JAK 1 (pKi) (JAK1) | IC50 [1] [nM] | Ki (JAK1; read-out: JAK 1 (pKi) (converted)) [nM]
1 | CCS(=O)(=O)N1[C@@H]2CCC[C@H]1C[C@H](N(C)c1nc(Nc3cc(C)[nH]n3)cc(C3CCOCC3)n1)C2 [Compound 1, N^2-((1R,3s,5S)-9-(ethylsulfonyl)-9-azabicyclo[3.3.1]nonan-3-yl)-N^2-methyl-N^4-(5-methyl-1H-pyrazol-3-yl)-6-(tetrahydro-2H-pyran-4-yl)pyrimidine-2,4-diamine] | 0.1 to 1 | < 5000 | > 10000 | > 10000 | > 10000 | A (A represents a value above 35×10^−6 cm/sec) | A (A represents a value above 30×10^−6 cm/sec) | A (A represents a pKi value ≥10 (Ki≤0.1 nM)) | ≤ 10 | 
2 | Cc1cc(Nc2cc(O[C@@H]3CCOC3)nc(N(C)[C@@H]3C[C@H]4CCC[C@@H](C3)N4CC(=O)N3CCCC3)n2)n[nH]1 [Compound 19] | 0.1 to 1 | < 5000 | < 5000 | < 5000 | < 5000 |  |  | A (A represents a pKi value ≥10 (Ki≤0.1 nM)) | ≤ 10 | 
3 | CCNC(=O)CN1[C@@H]2CCC[C@H]1C[C@H](N(C)c1nc(Nc3cc(C)[nH]n3)cc(O[C@@H]3CCOC3)n1)C2 [Compound 20] | 0.1 to 1 | < 5000 | > 10000 | > 10000 | > 10000 | B (B represents a value between 20×10^−6 and 35×10^−6 cm/sec) | B (B represents a value between 15×10^−6 and 30×10^−6 cm/sec) | A (A represents a pKi value ≥10 (Ki≤0.1 nM)) | ≤ 10 | 
4 | CCOC(=O)N1[C@@H]2CCC[C@H]1C[C@H](N(C)c1nc(Nc3cc(C)[nH]n3)cc(O[C@@H]3CCOC3)n1)C2 [Compound 24] | 0.1 to 1 | < 5000 | < 5000 | < 5000 | < 5000 |  |  | A (A represents a pKi value ≥10 (Ki≤0.1 nM)) | 10 to 31.6 | 
5 | Cc1cc(Nc2cc(O[C@@H]3CCOC3)nc(N(C)[C@@H]3C[C@H]4CCC[C@@H](C3)N4C(=O)CC3CC3)n2)n[nH]1 [Compound 26] | 0.1 to 1 | < 5000 | < 5000 | < 5000 | < 5000 |  |  | A (A represents a pKi value ≥10 (Ki≤0.1 nM)) | ≤ 10 | 
6 | COC(=O)N1[C@@H]2CCC[C@H]1C[C@H](N(C)c1nc(Nc3cc(C)[nH]n3)cc(O[C@H]3CCOC3)n1)C2 [Compound 27] | 0.1 to 1 | < 5000 | < 5000 | < 5000 | < 5000 |  |  | A (A represents a pKi value ≥10 (Ki≤0.1 nM)) | 10 to 31.6 | 
7 | CCC(=O)N1[C@@H]2CCC[C@H]1C[C@H](N(C)c1nc(Nc3cc(C)[nH]n3)cc(O[C@H]3CCOC3)n1)C2 [Compound 28] | 0.1 to 1 | < 5000 | 5000 to 10000 (≈ 10.6 to 21.3 mM) | 5000 to 10000 (≈ 10.6 to 21.3 mM) | > 10000 |  |  | A (A represents a pKi value ≥10 (Ki≤0.1 nM)) | ≤ 10 | 
8 | COCCC(=O)N1[C@@H]2CCC[C@H]1C[C@H](N(C)c1nc(Nc3cc(C)[nH]n3)cc(O[C@H]3CCOC3)n1)C2 [Compound 29] | 0.1 to 1 | < 5000 | > 10000 | 5000 to 10000 (≈ 10 to 20 mM) | > 10000 |  |  | A (A represents a pKi value ≥10 (Ki≤0.1 nM)) | ≤ 10 | 
9 | Cc1cc(Nc2cc(O[C@H]3CCOC3)nc(N(C)[C@@H]3C[C@H]4CCC[C@@H](C3)N4C(=O)CC3CC3)n2)n[nH]1 [Compound 30] | 0.1 to 1 | < 5000 | < 5000 | < 5000 | < 5000 |  |  | A (A represents a pKi value ≥10 (Ki≤0.1 nM)) | ≤ 10 | 
10 | COC(=O)N1[C@@H]2CCC[C@H]1C[C@H](N(C)c1nc(Nc3cc(C)[nH]n3)cc(OC3COC3)n1)C2 [Compound 36] | 1 to 10 | < 5000 | 5000 to 10000 (≈ 10.9 to 21.9 mM) | > 10000 | > 10000 | B (B represents a value between 20×10^−6 and 35×10^−6 cm/sec) | B (B represents a value between 15×10^−6 and 30×10^−6 cm/sec) |  | ≤ 10 | 0.1 to 1
11 | CCNC(=O)CN1[C@@H]2CCC[C@H]1C[C@H](N(C)c1nc(Nc3cc(C)[nH]n3)cc(OC3COC3)n1)C2 [Compound 37] | 0.1 to 1 | < 5000 | < 5000 | < 5000 | < 5000 |  |  | A (A represents a pKi value ≥10 (Ki≤0.1 nM)) | ≤ 10 | 
12 | Cc1cc(Nc2cc(OC3COC3)nc(N(C)[C@@H]3C[C@H]4CCC[C@@H](C3)N4CC(=O)N3CCCC3)n2)n[nH]1 [Compound 38] | 0.1 to 1 | < 5000 | < 5000 | < 5000 | < 5000 |  |  | A (A represents a pKi value ≥10 (Ki≤0.1 nM)) | ≤ 10 | 
